Source: ChEMBL document CHEMBL3108688, “4-Thiazolidinones: the advances continue…” (Eur J Med Chem, 2014)
≈ marks a conversion by molar mass, not a printed value.

System: Tacaribe virus
Experiment: Antiviral activity against Tacaribe virus TRVL11573
Format: functional, organism-based
Conditions: Mammarenavirus tacaribeense

Work on `COc1ccc(NC(=O)CC2SC(N3N=C(c4ccccc4)CC3c3ccc(OC)cc3)=NC2=O)cc1` (stereo unspecified) yielded an EC50 of 0.71 µg/mL (≈ 1.38 µM).
